Experimental data from patent publication US20250176877A1, “SENSING PLATFORMS WITH NEEDLES AND METHODS OF FABRICATION AND USE” (Purdue Research Foundation, priority 2023, published 2025).

System: HL-1 cells
Settings: 100 nM nifedipine, control without drug 0.85±0.17 mV
Description: The surface of the sensing platform 10 was coated with a gelatin solution to ensure cell adhesion, and no additional functionalization agents were used. […] To further improve the adhesion of the needles 12 to the cell membrane, mechanoporation was conducted by centrifuging at 500 rpm for one minute. Electroporation was followed using a series of biphasic square pulses to facilitate electrical access to the intracellular region. […] In order to showcase the live imaging capabilities through the optical transparency of the sensing platform 10, concurrent calcium ion (Ca^2+) flux imaging was simultaneously performed using an inverted microscope—a standard tool that is compatible only with transparent substrates. For Ca^2+ flux imaging, Fluo-8, a fluorescent calcium indicator, was loaded into the cells for live imaging, and the alteration in fluorescent intensity (AF) was measured and compared with the resting intensity (F0).
To evaluate the signal quality of the sensing platform 10, a comparative analysis of signal amplitude was conducted in comparison to a control group including the needles on a Si wafer. The measurements were limited to the cells that had been beating at approximately 1 Hz for at least one day, as the recorded amplitude and beating interval can vary with cell culture age.

COC(=O)C1=C(C)NC(C)=C(C(=O)OC)C1c1ccccc1[N+](=O)[O-] [nifedipine]
peak amplitude of action potential: 0.55±0.12 mV
